According to US12303505B2, “Tumor-treating pharmaceutical composition” (Eisai R&D Management Co., Ltd., priority 2017, dated 2025):
“Also recorded” adds a separate entry of the source. Where a name gives a salt, the structure may show the parent alone.

Legend:
Type in all cases: in vivo
[1] = test system: human melanoma cell line SEKI; test: Antitumor effect in human melanoma cell line SEKI transplantation model, nude mice
Description: A human melanoma cell line SEKI (JCRB Cell Bank) was cultured by using RPMI1640 medium (Sigma-Aldrich Co. LLC) containing 10% FBS in a 5% CO2 incubator under conditions of 37° C. When the cells became an approximately 80% confluent state, the cells were recovered by using trypsin-EDTA. A suspension was prepared by adding Hank's balanced salt solution containing 50% Matrigel to the cells so as to be 5.0×10^7 cells/mL. 0.1 mL of the obtained cell suspension was subcutaneously transplanted to the sides of the bodies of six nude mice (CAnN.Cg-Foxn1^nu/CrlCrlj, Charles River Laboratories Japan, Inc.) each of a control group, an E7386 12.5 or 25 mg/kg alone administration group, a lenvatinib mesylate 10 mg/kg alone administration group, and a combined administration group of 12.5 or 25 mg/kg E7386 and 10 mg/kg lenvatinib mesylate. From 13 days after the transplantation, E7386 (12.5 or 25 mg/kg, b.d.s., 14 days, oral administration) and lenvatinib mesylate (10 mg/kg, q.d., 14 days, oral administration) were administered alone or in combination to the alone administration group or the combined administration group. For the administration, E7386 was dissolved in 0.1 mol/L hydrochloric acid, and lenvatinib mesylate was dissolved in 3 mmol/L hydrochloric acid. 0.1 mol/L hydrochloric acid (b.d.s., 14 days) was administered to the control group.
When the start day of administration was defined as day 1, the major axis and minor axis of tumor developed in each mouse were then measured at day 4, day 8, day 11, and day 15 by using Digimatic Caliper (Mitutoyo Corp.).
(§1) The tumor volume and the relative tumor volume (RTV) were calculated according to the following expressions. Tumor volume (mm^3)=Tumor major axis (mm)×Tumor minor axis^2 (mm^2)/2 Relative tumor volume (RTV)=Tumor volume at the measurement day/Tumor volume at the start day of administration

[2] = test system: Human hepatocellular carcinoma line HepG2 cells; test: Antitumor effect in human hepatocellular carcinoma line HepG2 subcutaneous transplantation model, nude mice
Description: Human hepatocellular carcinoma line HepG2 cells (JCRB Cell Bank) were cultured by using DMEM-Low glucose medium (Wako Pure Chemical Industries, Ltd.) containing 10% FBS in a 5% CO2 incubator under conditions of 37° C. When the cells became an approximately 80% confluent state, the cells were recovered by using trypsin-EDTA. A suspension was prepared by adding phosphate-buffered saline containing 50% Matrigel to the cells so as to be 10.0×10^7 cells/mL. 0.1 mL of the obtained cell suspension was subcutaneously transplanted to the sides of the bodies of five nude mice (CAnN.Cg-Foxn1^nu/CrlCrlj, Charles River Laboratories Japan, Inc.) each of a control group, an E7386 50 mg/kg alone administration group, a lenvatinib mesylate 10 mg/kg alone administration group, and a combined administration group of 50 mg/kg E7386 and 10 mg/kg lenvatinib mesylate. From 12 days after the transplantation, E7386 (50 mg/kg, b.d.s., 14 days, oral administration) and lenvatinib mesylate (10 mg/kg, q.d., 14 days, oral administration) were administered alone or in combination to the alone administration group or the combined administration group. For the administration, E7386 was dissolved in 0.1 mol/L hydrochloric acid, and lenvatinib mesylate was dissolved in 3 mmol/L hydrochloric acid. Any drug was not administered to the control group.
When the start day of administration was defined as day 1, the major axis and minor axis of tumor developed in each mouse were then measured at day 4, day 7, day 9, day 13, and day 15 by using Digimatic Caliper (Mitutoyo Corp.).
as §1

[3] = test system: Human colorectal cancer line Colo-205 cells; test: Antitumor effect in human colorectal cancer line Colo-205 transplantation model, nude mice
Description: Human colorectal cancer line Colo-205 cells (ATCC) were cultured by using RPMI1640 medium (Wako Pure Chemical Industries, Ltd.) containing 10% FBS in a 5% CO2 incubator under conditions of 37° C. When the cells became an approximately 80% confluent state, the cells were recovered by using trypsin-EDTA. A suspension was prepared by adding Hank's balanced salt solution to the cells so as to be 5.0×10^7 cells/mL. 0.1 mL of the obtained cell suspension was subcutaneously transplanted to the sides of the bodies of five nude mice (CAnN.Cg-Foxn1^nu/CrlCrlj, Charles River Laboratories Japan, Inc.) each of a control group, an E7386 50 mg/kg alone administration group, a lenvatinib mesylate 10 mg/kg alone administration group, and a combined administration group of 50 mg/kg E7386 and 10 mg/kg lenvatinib mesylate. From 8 days after the transplantation, E7386 (50 mg/kg, q.d., 11 days, oral administration) and lenvatinib mesylate (10 mg/kg, q.d., 11 days, oral administration) were administered alone or in combination to the alone administration group or the combined administration group. For the administration, E73 86 was dissolved in 0.1 mol/L hydrochloric acid, and lenvatinib mesylate was dissolved in 3 mmol/L hydrochloric acid. Any drug was not administered to the control group.
When the start day of administration was defined as day 1, the major axis and minor axis of tumor developed in each mouse were then measured at day 4, day 8, and day 12 by using Digimatic Caliper (Mitutoyo Corp.).
as §1

[4] = test system: Human hepatocellular carcinoma line HepG2 cells; test: Tumor vessel suppressive effect (CD31/α-SMA co-staining, MVD and PCI) in human hepatocellular carcinoma HepG2 subcutaneous transplantation model, nude mice; details: FIG. 22; lenvatinib mesylate 10 mg/kg q.d. alone, 14 days oral; vs control group
Description: For the administration, E7386 was dissolved in 0.1 mol/L hydrochloric acid, and lenvatinib mesylate was dissolved in 3 mmol/L hydrochloric acid. Any drug was not administered to the control group.

[5] = Day 4, lenvatinib mesylate 10 mg/kg q.d. oral alone
[6] = Day 8, lenvatinib mesylate 10 mg/kg q.d. oral alone
[7] = Day 15, lenvatinib mesylate 10 mg/kg q.d. oral alone

COc1cc2nccc(Oc3ccc(NC(=O)NC4CC4)c(Cl)c3)c2cc1C(N)=O [Lenvatinib mesylate, 4-(3-chloro-4-(cyclopropylaminocarbonyl)aminophenoxy)-7-methoxy-6-quinolinecarboxamide, reference compound]
Relative tumor volume (RTV), mean±SD [1, 5]: 1.60 ± 0.22
Relative tumor volume (RTV), mean±SD [1, 6]: 2.66 ± 0.46
Relative tumor volume (RTV), mean±SD ([1]; Day 11, lenvatinib mesylate 10 mg/kg q.d. oral alone): 3.81 ± 0.80
Relative tumor volume (RTV), mean±SD [1, 7]: 4.67 ± 1.19
Relative tumor volume (RTV), mean±SD [2, 5]: 1.10 ± 0.08
Relative tumor volume (RTV), mean±SD ([2]; Day 7, lenvatinib mesylate 10 mg/kg q.d. oral alone): 1.60 ± 0.94
Relative tumor volume (RTV), mean±SD ([2]; Day 9, lenvatinib mesylate 10 mg/kg q.d. oral alone): 2.07 ± 0.88
Relative tumor volume (RTV), mean±SD ([2]; Day 13, lenvatinib mesylate 10 mg/kg q.d. oral alone): 2.70 ± 1.47
Relative tumor volume (RTV), mean±SD [2, 7]: 3.43 ± 1.46
Relative tumor volume (RTV), mean±SD [3, 5]: 1.41 ± 0.30
Relative tumor volume (RTV), mean±SD [3, 6]: 1.75 ± 0.13
Relative tumor volume (RTV), mean±SD ([3]; Day 12, lenvatinib mesylate 10 mg/kg q.d. oral alone): 1.94 ± 0.31
PCI (pericyte coverage index) (in words) [4]: markedly increased; also recorded: statistically significantly increased pericyte coverage as compared with the control group

C=CCN1CC(=O)N2[C@@H](Cc3ccc(O)cc3F)C(=O)N(Cc3cccc(N4CC(N5CCN(CC)CC5)C4)n3)C[C@@H]2N1C(=O)NCc1ccccc1 [E7386, (6S,9aS)—N-Benzyl-8-({6-[3-(4-ethylpiperazin-1-yl)azetidin-1-yl]pyridin-2-yl}methyl)-6-(2-fluoro-4-hydroxybenzyl)-4,7-dioxo-2-(prop-2-en-1-yl)hexahydro-2H-pyrazino[2,1-c][1,2,4]triazine-1(6H)-carboxamide]
Relative tumor volume (RTV), mean±SD ([1]; Day 4, E7386 12.5 mg/kg b.d.s. oral alone): 1.65 ± 0.22
Relative tumor volume (RTV), mean±SD ([1]; Day 4, E7386 25 mg/kg b.d.s. oral alone): 1.56 ± 0.21
Relative tumor volume (RTV), mean±SD ([1]; Day 8, E7386 12.5 mg/kg b.d.s. oral alone): 3.02 ± 0.31
Relative tumor volume (RTV), mean±SD ([1]; Day 8, E7386 25 mg/kg b.d.s. oral alone): 2.94 ± 0.22
Relative tumor volume (RTV), mean±SD ([1]; Day 11, E7386 12.5 mg/kg b.d.s. oral alone): 4.19 ± 0.80
Relative tumor volume (RTV), mean±SD ([1]; Day 11, E7386 25 mg/kg b.d.s. oral alone): 4.35 ± 0.36
Relative tumor volume (RTV), mean±SD ([1]; Day 15, E7386 12.5 mg/kg b.d.s. oral alone): 5.53 ± 1.21
Relative tumor volume (RTV), mean±SD ([1]; Day 15, E7386 25 mg/kg b.d.s. oral alone): 5.90 ± 1.34
Relative tumor volume (RTV), mean±SD ([2]; Day 4, E7386 50 mg/kg b.d.s. oral alone): 1.45 ± 0.23
Relative tumor volume (RTV), mean±SD ([2]; Day 7, E7386 50 mg/kg b.d.s. oral alone): 3.05 ± 0.57
Relative tumor volume (RTV), mean±SD ([2]; Day 9, E7386 50 mg/kg b.d.s. oral alone): 3.96 ± 0.53
Relative tumor volume (RTV), mean±SD ([2]; Day 13, E7386 50 mg/kg b.d.s. oral alone): 5.60 ± 1.02
Relative tumor volume (RTV), mean±SD ([2]; Day 15, E7386 50 mg/kg b.d.s. oral alone): 6.23 ± 1.39
Relative tumor volume (RTV), mean±SD ([3]; Day 4, E7386 50 mg/kg q.d. oral alone): 1.98 ± 0.24
Relative tumor volume (RTV), mean±SD ([3]; Day 8, E7386 50 mg/kg q.d. oral alone): 3.87 ± 0.74
Relative tumor volume (RTV), mean±SD ([3]; Day 12, E7386 50 mg/kg q.d. oral alone): 4.94 ± 1.41
